In article PMC9960827, “Cloning and Characterization of Trypanosoma congolense and T. vivax Nucleoside Transporters Reveal the Potential of P1-Type Carriers for the Discovery of Broad-Spectrum Nucleoside-Based Therapeutics against Animal African Trypanosomiasis” (International Journal of Molecular Sciences, 2023):
Like-named read-outs stand apart in the source and are kept apart here.

Assays:
[1] = tested on: L. mexicana Cas9; test: Resazurin drug sensitivity assay, LmexCas9; assay type: cell-based, Leishmania mexicana; conditions: resazurin, promastigotes; read-out: LmexCas9 EC50
Procedure: (§1) EC50 values were determined by plotting to an equation for a sigmoid curve with variable slope (GraphPad Prism 8). All values were the average of at least three independent determinations on different days.

[2] = tested on: T. evansi; test: Alamar Blue (resazurin) assay, T. evansi; assay type: cell-based, Trypanosoma evansi; conditions: resazurin; read-out: T. evansi EC50
Procedure: as §1

[3] = molecular target: TcoAT1; assay type: cell-based, Trypanosoma congolense; conditions: for Ki: 0.05 µM [3H]-adenosine, 10 s, IC50 converted to Ki, read-out: Ki on the transport of [3H]-adenosine
Text: The information for the T. congolense adenosine transporter (TcoAT1) and four putative T. vivax nucleoside transporters was obtained in the TritrypDB (tritrypdb.org/tritrypdb) genome database. Primers were designed to flank each gene upstream of the 5′ end (forward) and downstream of the 3′ end (reverse) as described (primer sequences in Supplementary Table S2). Following amplification from the genomic DNA of T. congolense or T. vivax, DNA for each extracted gene was ligated into the pNUS-HcN expression vector doubly digested with NdeI using the NEBuilder kit according to the manufacturer’s instructions (New England Biolabs). Construct was transformed into competent E. coli cells, and ligation was confirmed by restriction enzyme digestion of isolated plasmid DNA followed by Sanger sequencing (Source BioScience, Nottingham, UK). Confirmed plasmids were then transfected into L. mexicana cell line in which both NT1 and NT2 were doubly knocked out (SUPKO) and derived from L. mexicana Cas9 [64] as described. Clones grown in medium containing 50 μg/mL neomycin (G418) were collected for further confirmation by PCR with genomic DNA using a forward primer of the transporter gene and a reverse primer of the plasmid.
(§2) Uptake assays using radiolabeled trypanocides and/or nucleosides were carried out as described previously. Briefly, parasite cultures were harvested, washed twice in assay buffer (33 mM HEPES, 98 mM NaCl, 4.6 mM KCl, 0.5 mM CaCl2, 0.07 mM MgSO4, 5.8 mM NaH3PO4, 0.03 mM MgCl2, 23 mM NaHCO3, 14 mM D-glucose, pH 7.3), then resuspended and adjusted to a density of 1 × 10^8 cells/mL in assay buffer. The radiolabeled permeant in the presence or absence of different concentrations of potential inhibitors reconstituted in 100 μL assay buffer was deposited on top of 250 μL oil mix in microcentrifuge tubes; 1 × 10^7 parasites in 100 μL assay buffer were added to the tube and incubated for a pre-determined interval. The reaction was stopped by the addition of 1 mL of a high concentration of ice-cold unlabeled substrate in assay buffer (‘stop solution’) and centrifugation, or by immediate centrifugation at […] as appropriate. The microcentrifuge tubes were flash-frozen, and the bottom of each tube containing the cell pellet was cut off and transferred to a scintillation vial. Cell pellets were lysed in 2% SDS, after which scintillation fluid (Scintlogic U, Lablogic) was added, followed by overnight incubation in the dark. Scintillation was measured in a 300SL (Hidex) scintillation counter (Hidex). All the assays were conducted in triplicate and analysis was carried out using Microsoft Excel and GraphPad Prism. All kinetic parameters were obtained on at least 3 separate occasions.
(§3) The dose-dependent uptake assay allowed for the affinity of nucleoside analogs to different nucleoside transporters to be determined by measuring the extent to which the analogs compete with and inhibit the uptake of radiolabel adenosine. This allowed for the determination of biochemical parameters such as Km and Vmax through the application of the Michaelis–Menten equation V0 = Vmax([substrate]/([substrate] + Km)). The 50% Inhibitory Concentration (IC50) of the purines and pyrimidines and their analogs was determined from non-linear regression to sigmoid curves with variable slope (Prism 8), and the IC50 of the inhibitor and the Km of the labeled permeant were then used to calculate the inhibition constant (Ki) of the analogs through the Cheng–Prusoff equation: Ki = IC50/(1 + (L/Km)), where L denotes the radiolabel concentration. The calculated Ki was in turn used to determine the Gibbs free energy (ΔG^0) of the inhibitor–transporter interaction using the equation: ΔG^0 = -RTln(Ki), where R represents the gas constant and T symbolizes the absolute temperature in Kelvin [104].

[4] = tested on: T. vivax; test: T. vivax EC50 (from Mabille et al.); assay type: cell-based, Trypanosoma vivax; conditions: from Table 8 data
[5] = tested on: T. vivax; parameters: method as in Mabille et al. [69]; conditions: added for comparison only; ref Mabille et al. [69]; cited from earlier work
[6] = tested on: T. congolense 6C3; test: microbe, parasite or virus in culture; assay type: cell-based, Trypanosoma congolense; conditions: for EC50: diminazene resistant strain, resazurin, read-out: T. congolense 6C3 EC50; for T. congolense 6C3 RF: resistance factor = EC50 (test strain)/EC50(control strain)
Procedure: as §1

[7] = tested on: L. mexicana SUPKO; test: microbe, parasite or virus in culture; assay type: cell-based, Leishmania mexicana; conditions: for EC50: resazurin, promastigotes, read-out: SUPKO EC50; for SUPKO RF (Cas9): Resistance Factor = EC50(SUPKO)/EC50(Cas9)
Procedure: as §1

[8] = tested on: L. mexicana SUPKO+TvxNT3; test: microbe, parasite or virus in culture; assay type: cell-based, Leishmania mexicana; conditions: for EC50: resazurin, promastigotes, read-out: SUPKO+TvxNT3 EC50; for SUPKO+TvxNT3 RF (SUPKO): Resistance Factor relative to SUPKO
Procedure: as §1

[9] = tested on: L. mexicana SUPKO+TcoAT1; test: microbe, parasite or virus in culture; assay type: cell-based, Leishmania mexicana; conditions: for EC50: resazurin, promastigotes, read-out: SUPKO+TcoAT1 EC50; for SUPKO+TcoAT1 RF (SUPKO): Resistance Factor relative to SUPKO
Procedure: as §1

[10] = molecular target: T. congolense adenosine transporter; test: [3H]-adenosine uptake and its inhibition in T. congolense IL3000 bloodstream forms; assay type: cell-based, Trypanosoma congolense; conditions: for Ki: 0.05 µM [3H]-adenosine, 30 s, IC50 converted to Ki, read-out: Ki on the transport of [3H]-adenosine; for ΔG0, Gibbs free energy of interaction: calculated from Km or Ki
Procedure: as §2, §3

[11] = tested on: T. congolense IL3000; test: Alamar Blue (resazurin) assay, T. congolense IL3000; assay type: cell-based, Trypanosoma congolense; conditions: BSF, resazurin; read-out: T. congolense IL3000 EC50
Procedure: as §1

[12] = tested on: T. equiperdum; test: Alamar Blue (resazurin) assay, T. equiperdum; assay type: cell-based, Trypanosoma equiperdum; conditions: resazurin; read-out: T. equiperdum EC50
Procedure: as §1

[13] = tested on: T.b.b. B48; test: Alamar Blue (resazurin) assay, T. b. brucei B48; assay type: cell-based, Trypanosoma brucei brucei; conditions: multidrug-resistant strain, resazurin; read-out: T.b.b. B48 EC50
Procedure: as §1

[14] = tested on: human embryonic kidney (HEK) cells; test: Resazurin toxicity assay on human embryonic kidney cells; assay type: cell-based; conditions: for SI T. congolense: selectivity index = EC50 (HEK cells)/EC50 (T. congolense); for SI T. equiperdum: selectivity index = EC50 (HEK cells)/EC50 (T. equiperdum); for SI T. evansi: selectivity index = EC50 (HEK cells)/EC50 (T. evansi)
Procedure: as §1

[15] = resazurin, 96 well plates, read-out: HEK EC50

Structure (SMILES) | EC50 [1] [µM] | EC50 [2] [µM] | Ki [3] [µM] | EC50 [5] [µM] | EC50 [6] [µM] | T. congolense 6C3 RF [6] | EC50 [7] [µM] | EC50 [8] [µM] | EC50 [9] [µM] | Ki [10] [µM] | ΔG0, Gibbs free energy of interaction [10] [kcal/mol] | EC50 [11] [µM] | EC50 [12] [µM] | EC50 [13] [µM] | EC50 [14, 15] [µM] | SI T. congolense [14] | SI T. equiperdum [14] | SI T. evansi [14] | SUPKO RF (Cas9) [7] | SUPKO+TvxNT3 RF (SUPKO) [8] | further results
C=Cc1cn([C@@H]2O[C@H](CO)C[C@H]2O)c2ncnc(N)c12 [FH10659] | > 100 | 0.038 ± 0.0015 | 59.3 ± 4.3 | 1.57 ± 0.43 | 0.04 ± 0.003 | 0.70 | > 100 | > 100 | > 100 | 28.5 ± 8.1 | -6.19 | 0.056 ± 0.004 | 0.011 ± 0.001 | – | – | – | – | – | – | – | fold higher EC50 against T. vivax compared to T. congolense [4]: 10–165 fold
Nc1ncnc2c1c(Br)cn2[C@H]1C[C@H](O)[C@@H](CO)O1 [FH10679] | – | 1.74 ± 0.53 | – | 4.3 ± 0.9 | 0.31 ± 0.07 | 0.60 | – | – | – | – | – | 0.51 ± 0.09 | 0.067 ± 0.013 | 1.04 ± 0.19 | > 200 | >390 | >3000 | >115 | – | – | –
Nc1ncnc2c1c(Cl)cn2[C@@H]1O[C@H](CO)[C@@H](O)[C@H]1O [FH3169] | 0.23 ± 0.005 | 0.62 ± 0.06 | – | 0.053 ± 0.007 | 0.75 ± 0.14 | 0.87 | 15.4 ± 2.7 | 15.9 ± 2.5 | 9.41 ± 0.56 | – | – | 0.86 ± 0.12 | 0.12 ± 0.018 | 1.84 ± 0.33 | 4.55 ± 0.19 | 5.3 | 37 | 7.4 | 67.7 | 0.97 | SUPKO+TcoAT1 RF (SUPKO) [9]: 1.64
Nc1ncnc2c1c(F)cn2[C@@H]1O[C@H](CO)C[C@H]1O [FH8517] | 3.09 ± 0.04 | 0.004 ± 0.0006 | 229 ± 15 | 0.5 ± 0.01 | 0.0031 ± 0.0003 | 0.60 | 9.96 ± 2.04 | 9.42 ± 1.41 | 6.1 ± 0.7 | 98.1 ± 2.3 | -5.47 | 0.0052 ± 0.0003 | 0.00052 ± 0.00011 | 0.013 ± 0.002 | – | 330 | 3310 | 431 | 3.22 | 1.06 | EC50 [14]: 1.71 ± 0.11 µM; ΔG0 ([3]; Gibbs free energy of binding, from Km or Ki): -4.97 kcal/mol; SUPKO+TcoAT1 RF (SUPKO) [9]: 1.64
